The record followed here is PMC11187126, “Structure and dynamics of the pyroglutamylated RF-amide peptide QRFP receptor GPR103” (Nature Communications, 2024).

The target in this assay is T1, GPR103 E297^6.59A (Homo sapiens, UniProt Q96P65, E297A).
T1 construct: we used human full-length QRFPR-encoding plasmids; expressed in transfected cells; host or cells: HEK293 cells (HEK293A in the flow cytometry section), pCAGGS vector
T1 sequence (Q96P65 1-431 E297A): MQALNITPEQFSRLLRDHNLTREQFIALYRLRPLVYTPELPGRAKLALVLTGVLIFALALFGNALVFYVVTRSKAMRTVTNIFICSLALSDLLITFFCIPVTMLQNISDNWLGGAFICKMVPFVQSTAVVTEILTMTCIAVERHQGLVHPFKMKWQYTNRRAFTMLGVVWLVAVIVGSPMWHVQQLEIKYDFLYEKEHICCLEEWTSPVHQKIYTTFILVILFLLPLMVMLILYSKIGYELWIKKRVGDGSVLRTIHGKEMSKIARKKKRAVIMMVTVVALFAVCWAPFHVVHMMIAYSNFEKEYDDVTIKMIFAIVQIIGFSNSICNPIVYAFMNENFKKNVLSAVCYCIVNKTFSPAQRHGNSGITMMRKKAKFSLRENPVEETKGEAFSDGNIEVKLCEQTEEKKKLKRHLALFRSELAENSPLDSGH
The assay can be described thus: TGFα shedding assay; Exp. level >WT (1:1). Type of assay: cell-based.

Where two headings read alike, the source gives them in different places. No end group written: not given here.

What is called EC50 is the concentration giving half of the maximal effect. Read a low EC50 as greater potency. Consider TSGPLGNLAEELNGYSRKKGGFSFRF-NH2 [QRFP26], for which the Emax reads like this: (Exp. #1) 106.77 % WT; (Exp. #2) 105.91 % WT; (Exp. #3) 110.91 % WT; (mean, read-out: Emax) 108%; (n = 3, read-out: Emax) 112 ± 1.3%. For the same substance, the concentration for a half-maximal effect (EC50) (n = 3) is 28.2 nM.
